# Legend:
# Format in all cases: functional
# K562 = experiment: Cytotoxicity against Homo sapiens (human) K562 cells after 48 hr by sulforhodamine B assay; settings: K562, 48 h
# [1] = Cytotoxicity against Homo sapiens (human) […] cells after 48 hr by sulforhodamine B assay
# Hs-578T = experiment: Cytotoxicity against Homo sapiens (human) Hs 578T cells after 48 hr by sulforhodamine B assay
# SK-MEL-2 = experiment: Cytotoxicity against Homo sapiens (human) SK-MEL-2 cells after 48 hr by sulforhodamine B assay; settings: SK-MEL-2, 48 h
# Malme-3M = experiment: Cytotoxicity against Homo sapiens (human) MALME-3M cells after 48 hr by sulforhodamine B assay
# CAKI-1 = experiment: Cytotoxicity against Homo sapiens (human) Caki1 cells after 48 hr by sulforhodamine B assay; settings: CAKI-1, 48 h
# PC-3 = experiment: Cytotoxicity against Homo sapiens (human) PC3 cells after 48 hr by sulforhodamine B assay; settings: PC-3, 48 h
# OVCAR-8 = experiment: Cytotoxicity against Homo sapiens (human) OVCAR8 cells after 48 hr by sulforhodamine B assay; settings: OVCAR-8, 48 h
# DU-145 = experiment: Cytotoxicity against Homo sapiens (human) DU145 cells after 48 hr by sulforhodamine B assay; settings: DU-145, 48 h
# KM12 = experiment: Cytotoxicity against Homo sapiens (human) KM12 cells after 48 hr by sulforhodamine B assay; settings: KM12, 48 h
# HCT-15 = experiment: Cytotoxicity against Homo sapiens (human) HCT15 cells after 48 hr by sulforhodamine B assay; settings: HCT-15, 48 h
# COLO 205 = experiment: Cytotoxicity against Homo sapiens (human) COLO205 cells after 48 hr by sulforhodamine B assay; settings: COLO 205, 48 h
# SR = experiment: Cytotoxicity against Homo sapiens (human) SR cells after 48 hr by sulforhodamine B assay
# SF-539 = experiment: Cytotoxicity against Homo sapiens (human) SF539 cells after 48 hr by sulforhodamine B assay; settings: SF-539, 48 h
# HOP-62 = experiment: Cytotoxicity against Homo sapiens (human) HOP62 cells after 48 hr by sulforhodamine B assay; settings: HOP-62, 48 h
# UO-31 = experiment: Cytotoxicity against Homo sapiens (human) UO31 cells after 48 hr by sulforhodamine B assay; settings: UO-31, 48 h
# SNB-19 = experiment: Cytotoxicity against Homo sapiens (human) SNB19 cells after 48 hr by sulforhodamine B assay; settings: SNB-19, 48 h
# OVCAR-4 = experiment: Cytotoxicity against Homo sapiens (human) OVCAR4 cells after 48 hr by sulforhodamine B assay; settings: OVCAR-4, 48 h
# M14 = experiment: Cytotoxicity against Homo sapiens (human) M14 cells after 48 hr by sulforhodamine B assay; settings: M14, 48 h
# HCC 2998 = experiment: Cytotoxicity against Homo sapiens (human) HCC2998 cells after 48 hr by sulforhodamine B assay; settings: HCC 2998, 48 h
# HL-60(TB) = experiment: Cytotoxicity against Homo sapiens (human) HL-60(TB) cells after 48 hr by sulforhodamine B assay; settings: HL-60, 48 h
# SNB-75 = experiment: Cytotoxicity against Homo sapiens (human) SNB75 cells after 48 hr by sulforhodamine B assay; settings: SNB-75, 48 h
# U-251 = experiment: Cytotoxicity against Homo sapiens (human) U251 cells after 48 hr by sulforhodamine B assay; settings: U-251, 48 h
# EKVX = experiment: Cytotoxicity against Homo sapiens (human) EKVX cells after 48 hr by sulforhodamine B assay
# SK-OV-3 = experiment: Cytotoxicity against Homo sapiens (human) SKOV3 cells after 48 hr by sulforhodamine B assay; settings: SK-OV-3, 48 h
# SK-MEL-28 = experiment: Cytotoxicity against Homo sapiens (human) SK-MEL-28 cells after 48 hr by sulforhodamine B assay; settings: SK-MEL-28, 48 h
# NCI-H226 = experiment: Cytotoxicity against Homo sapiens (human) NCI-H226 cells after 48 hr by sulforhodamine B assay; settings: NCI-H226, 48 h
# NCI-H322M = experiment: Cytotoxicity against Homo sapiens (human) NCI-H322M cells after 48 hr by sulforhodamine B assay
# SF-268 = experiment: Cytotoxicity against Homo sapiens (human) SF268 cells after 48 hr by sulforhodamine B assay; settings: SF-268, 48 h
# UACC-257 = experiment: Cytotoxicity against Homo sapiens (human) UACC257 cells after 48 hr by sulforhodamine B assay; settings: UACC-257, 48 h
# IGROV-1 = experiment: Cytotoxicity against Homo sapiens (human) IGROV1 cells after 48 hr by sulforhodamine B assay; settings: IGROV-1, 48 h
smiles,measurement,setting,value
Cc1ccc(-c2cs/c(=N\NC(=O)c3ccc(O)cc3)n2-c2c(C)cccc2C)cc1,GI50,K562,11.5 µM
same,LC50,K562,> 100 µM
same,TGI,K562; read-out: pTGI (converted),79.4 µM
same,GI50,[1],20 µM
same,LC50,[1],> 100 µM
same,TGI,[1]; read-out: pTGI (converted),> 100 µM
same,GI50,Hs-578T,23.4 µM
same,LC50,Hs-578T,> 100 µM
same,TGI,Hs-578T; read-out: pTGI (converted),91.2 µM
same,GI50,SK-MEL-2,30.2 µM
same,LC50,SK-MEL-2,> 100 µM
same,TGI,SK-MEL-2; read-out: pTGI (converted),95.5 µM
same,GI50,Malme-3M,22.4 µM
same,LC50,Malme-3M,> 100 µM
same,TGI,Malme-3M; read-out: pTGI (converted),85.1 µM
same,GI50,CAKI-1,10.5 µM
same,LC50,CAKI-1,> 100 µM
same,TGI,CAKI-1; read-out: pTGI (converted),> 100 µM
same,GI50,PC-3,11 µM
same,LC50,PC-3,> 100 µM
same,TGI,PC-3; read-out: pTGI (converted),91.2 µM
same,GI50,OVCAR-8,31.6 µM
same,LC50,OVCAR-8,> 100 µM
same,TGI,OVCAR-8; read-out: pTGI (converted),> 100 µM
same,GI50,DU-145,28.2 µM
same,LC50,DU-145,> 100 µM
same,TGI,DU-145; read-out: pTGI (converted),> 100 µM
same,GI50,KM12,18.2 µM
same,LC50,KM12,> 100 µM
same,TGI,KM12; read-out: pTGI (converted),89.1 µM
same,GI50,HCT-15,17 µM
same,LC50 (concentration killing 50% of cells),HCT-15,> 100 µM
same,TGI,HCT-15; read-out: pTGI (converted),> 100 µM
same,GI50,COLO 205,16.6 µM
same,LC50,COLO 205,> 100 µM
same,TGI,COLO 205; read-out: pTGI (converted),66.1 µM
same,GI50,SR,16.2 µM
same,LC50,SR,> 100 µM
same,TGI,SR; read-out: pTGI,> 100 µM
same,GI50,SF-539,21.9 µM
same,LC50,SF-539,> 100 µM
same,TGI,SF-539; read-out: pTGI (converted),> 100 µM
same,GI50,HOP-62,23.4 µM
same,LC50,HOP-62,> 100 µM
same,TGI,HOP-62; read-out: pTGI (converted),74.1 µM
same,GI50,UO-31,9.55 µM
same,LC50,UO-31,> 100 µM
same,TGI,UO-31; read-out: pTGI,> 100 µM
same,GI50,SNB-19,20.9 µM
same,LC50,SNB-19,> 100 µM
same,TGI,SNB-19; read-out: pTGI (converted),> 100 µM
same,GI50,OVCAR-4,18.6 µM
same,LC50,OVCAR-4,> 100 µM
same,TGI,OVCAR-4; read-out: pTGI (converted),> 100 µM
same,GI50,M14,21.4 µM
same,LC50,M14,> 100 µM
same,TGI,M14; read-out: pTGI (converted),72.4 µM
same,GI50,HCC 2998,15.5 µM
same,LC50,HCC 2998,> 100 µM
same,TGI,HCC 2998; read-out: pTGI (converted),43.7 µM
same,GI50,HL-60(TB),11.5 µM
same,CC50,HL-60(TB); read-out: pLC50 (the source's name) (converted),> 100 µM
same,TGI,HL-60(TB); read-out: pTGI (converted),64.6 µM
same,GI50,SNB-75,24.5 µM
same,LC50,SNB-75,> 100 µM
same,TGI,SNB-75; read-out: pTGI (converted),> 100 µM
same,GI50,U-251,25.1 µM
same,LC50,U-251,> 100 µM
same,TGI,U-251; read-out: pTGI (converted),> 100 µM
same,GI50,EKVX,25.1 µM
same,LC50,EKVX,> 100 µM
same,TGI,EKVX; read-out: pTGI (converted),> 100 µM
same,GI50,SK-OV-3,30.9 µM
same,LC50,SK-OV-3,> 100 µM
same,TGI,SK-OV-3; read-out: pTGI (converted),> 100 µM
same,GI50,SK-MEL-28,30.9 µM
same,LC50 (concentration killing 50% of cells),SK-MEL-28,> 100 µM
same,TGI,SK-MEL-28; read-out: pTGI (converted),83.2 µM
same,GI50,NCI-H226,26.3 µM
same,LC50,NCI-H226,> 100 µM
same,TGI,NCI-H226; read-out: pTGI (converted),> 100 µM
same,GI50,NCI-H322M,35.5 µM
same,LC50,NCI-H322M,> 100 µM
same,TGI,NCI-H322M; read-out: pTGI (converted),> 100 µM
same,GI50,SF-268,23.4 µM
same,LC50,SF-268,> 100 µM
same,TGI,SF-268; read-out: pTGI (converted),> 100 µM
same,GI50,UACC-257,42.7 µM
same,LC50,UACC-257,> 100 µM
same,TGI,UACC-257; read-out: pTGI (converted),> 100 µM
same,GI50,IGROV-1,20 µM
same,LC50,IGROV-1,> 100 µM
same,TGI,IGROV-1; read-out: pTGI (converted),> 100 µM

# From ChEMBL document CHEMBL3046521, “Synthesis and antitumor activity of (4-hydroxyphenyl)[5-substituted alkyl/aryl)-2-thioxo-1,3,4-thiadiazol-3-yl]methanone and [(3,4-disubstituted)-1,3-thiazol-2ylidene]-4-hydroxybenzohydrazide” (2011)
